In US20170333112A1, “Optimizing Total Energy Delivered in Nanosecond Pulses for Triggering Apoptosis in Cultured Cells” (Pulse Biosciences, Inc., priority 2016, published 2017):

What was measured:
McA-RH7777 cells = test: ATP released from cells after treatment (FIG. 10); format: cell-based, rat
Description: (§1) FIG. 10 includes charts showing ATP released from MCA205, McA-RH7777, and Jurkat E6-1 cells at different numbers of pulses.

MCA205 cells = test: ATP released from cells after treatment (FIG. 10); format: cell-based, murine
Description: as §1

[1] = both high and low concentrations (4 and 10 μM)
[2] = higher concentration (100 μM), rank among treatment groups (NPS 15 J/mL highest)

| Structure (SMILES) | ATP released (McA-RH7777 cells; [1]) | ATP released (MCA205 cells; [1]) | ATP released (McA-RH7777 cells; [2]) | ATP levels compared with untreated cells (MCA205 cells; 100 μM) | ATP released (MCA205 cells; [2]) |
| --- | --- | --- | --- | --- | --- |
| O=C1c2c(O)ccc(O)c2C(=O)c2c(NCCNCCO)ccc(NCCNCCO)c21 [mitoxantrone] | comparatively small amount ATP | comparatively small amount ATP | – | – | – |
| COc1cccc2c1C(=O)c1c(O)c3c(c(O)c1C2=O)C[C@@](O)(C(=O)CO)C[C@@H]3O[C@H]1C[C@H](N)[C@H](O)[C@H](C)O1 [doxorubicin] | – | – | second highest amount of ATP | significantly higher | second highest amount of ATP |
